The text below walks through data of paper PMC10174618, “Monoterpenoid aryl hydrocarbon receptor allosteric antagonists protect against ultraviolet skin damage in female mice” (Nature Communications, 2023).

Common to all, as to experiment: biochemical
Parameters in all cases: KINOMEscan scanMAX active site-directed competition binding assay, percent of control, 468 kinases
What all share (conditions): competition binding, percent of control

For one test, the target named is CSK (Homo sapiens, UniProt P41240). Summed up: (§1)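 KINOMEscan active site-directed competition binding assay against 468 human kinases with 100 μM S-carvone. Binding expressed as % of control, with 35% of control as the inhibition threshold.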
Chain of CSK (P41240 whole entry): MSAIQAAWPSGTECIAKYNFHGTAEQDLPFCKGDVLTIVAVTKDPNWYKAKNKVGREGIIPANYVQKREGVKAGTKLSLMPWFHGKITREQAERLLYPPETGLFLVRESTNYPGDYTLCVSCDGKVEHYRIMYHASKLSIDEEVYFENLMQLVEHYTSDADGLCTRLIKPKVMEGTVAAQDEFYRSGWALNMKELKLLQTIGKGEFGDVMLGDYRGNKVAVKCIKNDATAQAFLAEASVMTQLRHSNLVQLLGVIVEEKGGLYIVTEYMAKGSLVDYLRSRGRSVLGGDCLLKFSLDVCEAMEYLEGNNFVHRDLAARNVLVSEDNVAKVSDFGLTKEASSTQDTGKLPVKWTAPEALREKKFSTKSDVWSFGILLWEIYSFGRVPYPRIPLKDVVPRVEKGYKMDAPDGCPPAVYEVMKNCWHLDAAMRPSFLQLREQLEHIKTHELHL
The target in another test is T1, BIKE (Homo sapiens, UniProt Q9NSY1).
T1 construct: gene BMP2K
Put shortly:
as §1

In another test the target is PAK1 (Homo sapiens, UniProt Q13153). Summed up:
as §1

A further test deals with MYLK4 (Homo sapiens, UniProt Q86YV6). Put shortly:
as §1

The next test deals with PIK3CG (Homo sapiens, UniProt P48736). Summed up:
as §1

The target in a further test is DDR2 (Homo sapiens, UniProt Q16832). Summed up:
as §1

A further test concerns the target ULK3 (Homo sapiens, UniProt Q6PHR2). Put shortly:
as §1

A further test concerns the target T2, NIM1 (Homo sapiens, UniProt Q8IY84).
T2 construct: gene NIM1K
Put shortly: as §1

A further test concerns the target ACVR1 (Homo sapiens, UniProt Q04771). Put shortly: as §1
The target of another test is CDK7 (Homo sapiens, UniProt P50613). Summed up:
as §1

The target of a further test is T3, TIE2 (Homo sapiens, UniProt Q02763).
T3 construct: gene TEK
T3 sequence (Q02763 whole entry): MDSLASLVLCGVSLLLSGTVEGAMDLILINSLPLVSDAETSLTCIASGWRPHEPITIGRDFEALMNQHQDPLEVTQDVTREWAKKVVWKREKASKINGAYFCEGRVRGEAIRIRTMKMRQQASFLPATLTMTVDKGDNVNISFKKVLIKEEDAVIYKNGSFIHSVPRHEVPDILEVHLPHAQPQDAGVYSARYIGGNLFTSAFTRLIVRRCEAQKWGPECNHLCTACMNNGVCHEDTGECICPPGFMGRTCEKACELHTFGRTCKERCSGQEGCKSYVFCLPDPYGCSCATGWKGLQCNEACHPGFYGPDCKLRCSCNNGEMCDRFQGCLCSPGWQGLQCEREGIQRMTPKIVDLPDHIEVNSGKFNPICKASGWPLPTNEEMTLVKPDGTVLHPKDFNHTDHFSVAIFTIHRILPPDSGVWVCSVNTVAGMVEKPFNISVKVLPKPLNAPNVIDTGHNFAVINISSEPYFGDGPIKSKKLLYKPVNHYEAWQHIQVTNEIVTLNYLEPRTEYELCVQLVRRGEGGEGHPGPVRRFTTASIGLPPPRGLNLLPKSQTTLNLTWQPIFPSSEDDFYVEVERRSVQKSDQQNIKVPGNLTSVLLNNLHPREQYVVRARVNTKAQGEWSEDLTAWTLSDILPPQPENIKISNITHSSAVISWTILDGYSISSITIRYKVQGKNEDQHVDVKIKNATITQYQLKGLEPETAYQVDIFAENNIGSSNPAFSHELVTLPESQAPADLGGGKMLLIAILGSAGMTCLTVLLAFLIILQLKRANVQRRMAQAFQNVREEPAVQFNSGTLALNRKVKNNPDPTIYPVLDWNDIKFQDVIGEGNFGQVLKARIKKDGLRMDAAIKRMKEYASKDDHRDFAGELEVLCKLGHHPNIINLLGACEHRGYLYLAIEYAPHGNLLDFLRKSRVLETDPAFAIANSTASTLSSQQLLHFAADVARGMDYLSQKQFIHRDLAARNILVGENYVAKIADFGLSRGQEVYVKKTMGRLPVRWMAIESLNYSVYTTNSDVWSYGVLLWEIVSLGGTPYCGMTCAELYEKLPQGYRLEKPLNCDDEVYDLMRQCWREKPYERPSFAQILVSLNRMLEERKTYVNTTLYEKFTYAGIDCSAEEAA
Put shortly: as §1

A further test deals with MUSK (Homo sapiens, UniProt O15146). Put shortly: as §1
Chain of MUSK (O15146 whole entry): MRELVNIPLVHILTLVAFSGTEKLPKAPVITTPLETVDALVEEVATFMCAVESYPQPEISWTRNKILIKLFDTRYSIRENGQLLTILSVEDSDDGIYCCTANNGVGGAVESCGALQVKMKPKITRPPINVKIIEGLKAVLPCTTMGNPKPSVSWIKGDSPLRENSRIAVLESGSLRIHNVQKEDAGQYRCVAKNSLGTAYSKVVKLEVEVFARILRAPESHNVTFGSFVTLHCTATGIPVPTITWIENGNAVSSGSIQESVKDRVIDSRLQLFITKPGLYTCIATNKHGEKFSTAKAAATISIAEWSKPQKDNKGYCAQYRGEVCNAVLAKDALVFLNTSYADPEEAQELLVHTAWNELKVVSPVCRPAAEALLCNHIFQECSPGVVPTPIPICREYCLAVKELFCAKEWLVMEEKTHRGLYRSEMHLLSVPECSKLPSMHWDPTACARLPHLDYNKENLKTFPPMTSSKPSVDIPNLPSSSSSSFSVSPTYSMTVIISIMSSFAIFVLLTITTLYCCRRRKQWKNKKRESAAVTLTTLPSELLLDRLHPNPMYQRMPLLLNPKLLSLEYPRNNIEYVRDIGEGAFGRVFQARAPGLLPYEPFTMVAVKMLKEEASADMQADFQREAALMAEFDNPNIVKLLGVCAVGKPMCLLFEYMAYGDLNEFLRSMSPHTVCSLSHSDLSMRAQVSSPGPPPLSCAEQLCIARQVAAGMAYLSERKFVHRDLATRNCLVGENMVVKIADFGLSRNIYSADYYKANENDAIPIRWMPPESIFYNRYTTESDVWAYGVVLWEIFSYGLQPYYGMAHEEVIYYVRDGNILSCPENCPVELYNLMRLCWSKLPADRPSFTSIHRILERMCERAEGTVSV
A further test concerns the target ROCK1 (Homo sapiens, UniProt Q13464). Summed up:
as §1

The next test deals with KIT(L576P) (Homo sapiens, UniProt P10721, L576P). Summed up: as §1
Chain of KIT(L576P) (P10721 whole entry L576P): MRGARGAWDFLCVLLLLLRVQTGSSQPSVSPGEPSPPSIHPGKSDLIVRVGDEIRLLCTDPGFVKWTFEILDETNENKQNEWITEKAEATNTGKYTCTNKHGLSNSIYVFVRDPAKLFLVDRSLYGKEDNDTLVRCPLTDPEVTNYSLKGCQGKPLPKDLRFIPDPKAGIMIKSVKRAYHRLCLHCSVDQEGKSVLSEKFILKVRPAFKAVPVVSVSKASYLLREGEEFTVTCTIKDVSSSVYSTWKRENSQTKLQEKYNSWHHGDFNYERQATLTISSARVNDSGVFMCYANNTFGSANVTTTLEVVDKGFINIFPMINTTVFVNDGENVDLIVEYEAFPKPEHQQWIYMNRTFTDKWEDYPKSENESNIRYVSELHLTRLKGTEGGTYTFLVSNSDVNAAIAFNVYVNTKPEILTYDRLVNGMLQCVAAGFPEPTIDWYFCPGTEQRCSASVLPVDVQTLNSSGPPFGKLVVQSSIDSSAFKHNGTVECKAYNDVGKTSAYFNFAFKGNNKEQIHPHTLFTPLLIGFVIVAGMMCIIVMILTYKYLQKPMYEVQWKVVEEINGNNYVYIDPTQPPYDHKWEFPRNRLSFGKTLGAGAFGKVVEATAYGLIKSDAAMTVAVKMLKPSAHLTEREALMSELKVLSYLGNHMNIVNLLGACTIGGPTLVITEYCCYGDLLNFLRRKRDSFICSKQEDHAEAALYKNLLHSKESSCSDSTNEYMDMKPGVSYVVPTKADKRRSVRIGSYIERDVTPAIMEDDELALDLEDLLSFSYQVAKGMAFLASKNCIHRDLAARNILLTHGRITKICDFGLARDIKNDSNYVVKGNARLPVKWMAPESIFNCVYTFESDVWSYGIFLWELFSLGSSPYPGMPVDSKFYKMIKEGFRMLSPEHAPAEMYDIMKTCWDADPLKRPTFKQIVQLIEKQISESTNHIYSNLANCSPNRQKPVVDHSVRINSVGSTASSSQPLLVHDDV
Another test concerns the target CAMK2G (Homo sapiens, UniProt Q13555). Summed up: as §1
A further test concerns the target TAOK1 (Homo sapiens, UniProt Q7L7X3). Put shortly: as §1
The target of another test is AKT2 (Homo sapiens, UniProt P31751). Summed up:
as §1

In another test the target is RET(V804M) (Homo sapiens, UniProt P07949, V804M). Put shortly: as §1
The target in test [1] is T4, ABL1(M351T)-phosphorylated (Homo sapiens, UniProt P00519, M351T).
T4 construct: phosphorylated
Summed up:
as §1

In a further test the target is KIT(V559D,V654A) (Homo sapiens, UniProt P10721, V559D/V654A). Summed up:
as §1

The target in another test is T5, MLK2 (Homo sapiens, UniProt Q02779).
T5 construct: gene MAP3K10
Put shortly:
as §1

The next test deals with TSSK1B (Homo sapiens, UniProt Q9BXA7). Summed up:
as §1

Structures are written as SMILES.

Chain of DDR2 (Q16832 whole entry): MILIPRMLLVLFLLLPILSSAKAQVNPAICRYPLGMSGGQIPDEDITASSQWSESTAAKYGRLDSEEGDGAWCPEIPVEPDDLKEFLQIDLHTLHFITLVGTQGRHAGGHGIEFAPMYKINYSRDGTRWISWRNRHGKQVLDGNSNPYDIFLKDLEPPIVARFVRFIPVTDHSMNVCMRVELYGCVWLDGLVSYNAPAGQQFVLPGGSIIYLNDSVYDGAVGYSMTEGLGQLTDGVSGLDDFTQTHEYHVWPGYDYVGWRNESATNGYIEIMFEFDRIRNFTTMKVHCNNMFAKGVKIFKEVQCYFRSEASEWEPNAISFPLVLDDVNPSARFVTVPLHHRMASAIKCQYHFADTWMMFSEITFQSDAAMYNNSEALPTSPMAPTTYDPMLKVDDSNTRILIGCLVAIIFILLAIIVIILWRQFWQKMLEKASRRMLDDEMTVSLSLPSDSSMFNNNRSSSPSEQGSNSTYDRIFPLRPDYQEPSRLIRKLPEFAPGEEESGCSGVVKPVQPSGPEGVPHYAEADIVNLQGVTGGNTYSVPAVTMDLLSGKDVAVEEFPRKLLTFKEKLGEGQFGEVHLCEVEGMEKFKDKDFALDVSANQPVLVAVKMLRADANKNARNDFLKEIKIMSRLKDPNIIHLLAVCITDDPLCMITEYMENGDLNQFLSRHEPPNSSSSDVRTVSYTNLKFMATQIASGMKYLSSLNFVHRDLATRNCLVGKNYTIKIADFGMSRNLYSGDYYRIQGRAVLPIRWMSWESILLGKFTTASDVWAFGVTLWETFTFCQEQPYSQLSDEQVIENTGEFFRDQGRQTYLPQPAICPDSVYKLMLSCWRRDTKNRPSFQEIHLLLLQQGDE
Chain of MYLK4 (Q86YV6 whole entry): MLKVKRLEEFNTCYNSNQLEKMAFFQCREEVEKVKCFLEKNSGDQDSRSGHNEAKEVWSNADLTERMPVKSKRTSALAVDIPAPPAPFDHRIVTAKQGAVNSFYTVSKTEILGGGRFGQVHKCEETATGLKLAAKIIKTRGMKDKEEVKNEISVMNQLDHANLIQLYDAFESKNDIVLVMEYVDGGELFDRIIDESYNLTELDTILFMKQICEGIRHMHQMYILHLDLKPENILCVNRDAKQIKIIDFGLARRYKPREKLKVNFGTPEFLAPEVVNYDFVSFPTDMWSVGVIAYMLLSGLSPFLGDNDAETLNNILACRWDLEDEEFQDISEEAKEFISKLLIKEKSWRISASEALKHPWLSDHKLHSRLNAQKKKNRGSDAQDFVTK
Chain of KIT(V559D,V654A) (P10721 whole entry V559D/V654A): as the sequence (P10721 whole entry L576P) above, with V559D, P576L, V654A counted along it
Chain of CDK7 (P50613 whole entry): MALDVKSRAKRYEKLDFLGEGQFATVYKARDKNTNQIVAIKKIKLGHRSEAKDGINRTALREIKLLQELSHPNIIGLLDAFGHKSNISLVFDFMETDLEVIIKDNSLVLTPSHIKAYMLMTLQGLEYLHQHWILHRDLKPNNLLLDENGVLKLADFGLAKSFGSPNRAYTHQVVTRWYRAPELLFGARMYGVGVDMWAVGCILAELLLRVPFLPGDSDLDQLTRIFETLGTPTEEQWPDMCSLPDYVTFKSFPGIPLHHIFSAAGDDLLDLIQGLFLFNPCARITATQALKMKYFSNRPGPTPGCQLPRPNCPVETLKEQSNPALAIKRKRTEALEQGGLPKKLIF

On to `C=C(C)[C@H]1CC=C(C)C(=O)C1` [S-carvone], for which the remaining binding at 100 µM is 88% at CSK; 100% on BIKE; 66% on PAK1; 93% on MYLK4; 69% at PIK3CG; 88% at DDR2. For the same compound, the remaining binding at 100 µM turned out to be 77% on ULK3; 65% at NIM1; 89% at ACVR1; 65% on CDK7; 84% on TIE2; 100% on MUSK. In addition, the remaining binding at 100 µM at ROCK1 stood at 100%; on KIT(L576P), 71%; at CAMK2G, 84%; at TAOK1, 82%; at AKT2, 86%; on RET(V804M) it was 96%. The remaining binding at 100 µM in test [1] was 96%; at KIT(V559D,V654A) it was 80%; at MLK2, 83%; at TSSK1B, 95%.
